The source of these data is US6586241B1, “Methods to identify compounds affecting mitochondria” (Johns Hopkins University, priority 1998, dated 2003).

Test [1] relates to mitochondrial flavoprotein oxidation (mitochondrial KATP channels). In words: Flavoprotein fluorescence measurement of mitochondrial redox state in intact ventricular myocytes. The test is classed as cell-based, rabbit. The source says: (§1) In the following Examples, ventricular myocytes were isolated from adult rabbit hearts by conventional enzymatic dissociation, according to Liu, Y., et al., “Synergistic modulation of ATP-sensitive K^+ currents by protein kinase C and adenosine: implications for ischemic preconditioning”, Circ. Res., 1996, 78: 443-454, then washed several times with calcium-free solution. […].
(§2) For whole-cell patch recordings, the internal pipette solution contained (in mM): 120 K-glutamate, 25 KCI, 0.5 MgCl2, 10 K-EGTA, 10 HEPES and 1 MgATP (pH 7.2 with KOH). The external solution included (in mM): 140 NaCl, 5 KCI, 1 CaCl2, 1 MgCl2, and 10 HEPES (pH 7.4 with NaOH). Whole-cell currents were elicited every 6 sec from a holding potential of −80 mV by two consecutive steps to −40 mV (for 100 msec) and 0 mV (for 380 msec). Currents at 0 mV were measured 200 msec into the pulse. Endogenous flavoprotein fluorescence was excited using a xenon arc lamp with a bandpass filter centered at 480 nm, but only during the 100 msec step to −40 mV t to minimize photobleaching. Emitted fluorescence was recorded at 530 nm by a photomultiplier tube and digitized (Digidata 1200, Axon Instruments). (See Paucek, P., et al., “Cardioprotective effect of diazoxide and its interaction with mitochondrial KATP: possible mechanism of cardioprotection”, J. Mol Cell Cardiol, 1997, 29: A199(Abstract)). Relative fluorescence was averaged during the excitation window and calibrated using the values after dinitrophenol (DNP) and sodium cyanide (CN) exposure.

The target of test [2] is T1, sarcolemmal KATP channels (Oryctolagus cuniculus, UniProt O02822+P82451).
T1 construct: ventricular myocytes were isolated from adult rabbit hearts by conventional enzymatic dissociation; endogenous in cells; host or cells: primary adult rabbit ventricular myocytes
As to the kind of experiment: Whole-cell patch recording of sarcolemmal KATP current (IKATP). The test is classed as cell-based, rabbit. As to conditions: for activation of IKATP: treatment with diazoxide and 5-HD, FIG. 4.
Text: as §1, §2

For test [3], the system named is rabbit ventricular myocytes. As to the kind of experiment: Simulated ischemia (cell pelleting) and cellular injury, trypan blue. As to conditions: for cytotoxicity at 50 µM: Oryctolagus cuniculus, Ventricular myocyte, 50 μM diazoxide, read-out: cells killed (% of viable cells prior to ischemia). Format: cell-based. As for the experimental part: In the following Examples, the procedure to determine cell injury was modified from […] al. […]., et al., “An in vitro model of myocardial ischemia utilizing isolated adult rat myocytes”, J. Mol. Cell Cardiol, 1990, 22: 165-181. After cell isolation, cells were washed with incubation buffer (in mM): NaCl 119, NaHCO3 25, KH2PO4 1.2, KCl 4.8, MgSO4 1.2, HEPES 10, glucose 11, and supplemented with creatine, taurine and amino acids (pH 7.4). Calcium was added into the buffer stepwise (0.25 mM every 5 minutes) to a final concentration of 1 mM. An aliquot of each cell suspension (0.5 ml) was placed in a 0.5 ml microcentrifuge tube and centrifuged for 20 seconds into a pellet. Each pellet occupied a volume of about 0.2 ml. Approximately 0.25 ml of excess supernatant was removed to leave a thin fluid layer above the pellet, and 0.2 ml of mineral oil was layered on the top of the pellet to exclude gaseous diffusion. After 60 min and 120 min of pelleting, 5 μl of cell pellet were sampled through the oil layer and mixed with 75 µl of 85 mOsm hypotonic staining solution (in mM): […] Microscopic examination was performed 2-5 min after mixing to determine the permeability of the cells to trypan blue. Cells permeable to trypan blue were counted as dead and expressed as a percentage of the total cells counted (>200 for each sample). The killing of cells by ischemia was quantified as percentage of the vital cells at the beginning of each experiment (78-90% of total, mean=82±1% n=24). The small percentage of cells ( 18%) that were non-viable at the beginning of the experiment were mostly rounded and had been damaged as a known consequence of the enzymatic isolation process. Mitra, R., et al., “A uniform enzymatic method for dissociation of myocytes from hearts and stomachs of vertebrates”, Am. J. Physiol, 1985, 249: […]-[…]. Individual experiments in each of four groups were performed on cells isolated from different hearts. In the control group (Cont), cells were pelleted and sampled at the 60 min and 120 min. For the diazoxide-treated group (Diazo), 50 μM of diazoxide was added into the solution 15 min before the pelleting. In the third group (5-HD), 100 μM of 5-HD was added into the cell suspension 20 min prior to pelleting. Cells in the Diazo+5HD group were treated the same as in the third group except that 50 μM of diazoxide was added into the cell suspension 15 min before pelleting. Once applied, drugs were not washed out, and thus were present throughout the period of simulated ischemia.

Test [4] deals with mitochondria of ventricular myocytes. Format: cell-based, rabbit. Particulars: sequential exposure diazoxide, DNP, CN; FIG. 8.
Protocol: In the following Examples, Confocal images were obtained using a Diaphot 300 inverted fluorescence microscope with a PCM-2000 confocal scanning attachment (Nikon, Inc.). Fluorescence was excited by the 488 nm line of an argon laser and the emission at 505-535 nm was recorded. A time series of images was collected at intervals of ˜10 sec and baseline, diazoxide, DNP and CN images were enhanced by averaging 8-10 sequential images having stable mean fluorescence intensities during the exposure to each agent.
To localize mitochondria, cells were loaded with 100 nM TMRE, which distributes into negatively charged cellular compartments, for 10 min., (Lemasters, J. J., et al., “Measurement of electrical potential, pH, and free calcium ion concentration in mitochondria of living cells by laser scanning confocal microscopy”, in Anonymous: Methods in Enzymology., New York, Academic Press, 1995, pp 429-417). TMRE fluorescence was excited with the 535 nm line of a helium neon laser and recorded at greater than 605 nm. A pseudocolor palette was applied to visualize the relative increase in mitochondrial flavoprotein oxidation state.
Images were analyzed on a personal computer using the software program ImageTool (University of Texas Health Sciences Center in San Antonio). All the recordings were performed at room temperature (21-22° C.).
Another test has as its system intact hearts. As to conditions: Paucek et al. 1997; cited from earlier work.

Broadly, the EC50 is the concentration at which the effect is half-maximal.

“Also recorded” adds a separate entry of the source. Where two headings read alike, the source gives them in different places.

T1 sequence (P82451 whole entry): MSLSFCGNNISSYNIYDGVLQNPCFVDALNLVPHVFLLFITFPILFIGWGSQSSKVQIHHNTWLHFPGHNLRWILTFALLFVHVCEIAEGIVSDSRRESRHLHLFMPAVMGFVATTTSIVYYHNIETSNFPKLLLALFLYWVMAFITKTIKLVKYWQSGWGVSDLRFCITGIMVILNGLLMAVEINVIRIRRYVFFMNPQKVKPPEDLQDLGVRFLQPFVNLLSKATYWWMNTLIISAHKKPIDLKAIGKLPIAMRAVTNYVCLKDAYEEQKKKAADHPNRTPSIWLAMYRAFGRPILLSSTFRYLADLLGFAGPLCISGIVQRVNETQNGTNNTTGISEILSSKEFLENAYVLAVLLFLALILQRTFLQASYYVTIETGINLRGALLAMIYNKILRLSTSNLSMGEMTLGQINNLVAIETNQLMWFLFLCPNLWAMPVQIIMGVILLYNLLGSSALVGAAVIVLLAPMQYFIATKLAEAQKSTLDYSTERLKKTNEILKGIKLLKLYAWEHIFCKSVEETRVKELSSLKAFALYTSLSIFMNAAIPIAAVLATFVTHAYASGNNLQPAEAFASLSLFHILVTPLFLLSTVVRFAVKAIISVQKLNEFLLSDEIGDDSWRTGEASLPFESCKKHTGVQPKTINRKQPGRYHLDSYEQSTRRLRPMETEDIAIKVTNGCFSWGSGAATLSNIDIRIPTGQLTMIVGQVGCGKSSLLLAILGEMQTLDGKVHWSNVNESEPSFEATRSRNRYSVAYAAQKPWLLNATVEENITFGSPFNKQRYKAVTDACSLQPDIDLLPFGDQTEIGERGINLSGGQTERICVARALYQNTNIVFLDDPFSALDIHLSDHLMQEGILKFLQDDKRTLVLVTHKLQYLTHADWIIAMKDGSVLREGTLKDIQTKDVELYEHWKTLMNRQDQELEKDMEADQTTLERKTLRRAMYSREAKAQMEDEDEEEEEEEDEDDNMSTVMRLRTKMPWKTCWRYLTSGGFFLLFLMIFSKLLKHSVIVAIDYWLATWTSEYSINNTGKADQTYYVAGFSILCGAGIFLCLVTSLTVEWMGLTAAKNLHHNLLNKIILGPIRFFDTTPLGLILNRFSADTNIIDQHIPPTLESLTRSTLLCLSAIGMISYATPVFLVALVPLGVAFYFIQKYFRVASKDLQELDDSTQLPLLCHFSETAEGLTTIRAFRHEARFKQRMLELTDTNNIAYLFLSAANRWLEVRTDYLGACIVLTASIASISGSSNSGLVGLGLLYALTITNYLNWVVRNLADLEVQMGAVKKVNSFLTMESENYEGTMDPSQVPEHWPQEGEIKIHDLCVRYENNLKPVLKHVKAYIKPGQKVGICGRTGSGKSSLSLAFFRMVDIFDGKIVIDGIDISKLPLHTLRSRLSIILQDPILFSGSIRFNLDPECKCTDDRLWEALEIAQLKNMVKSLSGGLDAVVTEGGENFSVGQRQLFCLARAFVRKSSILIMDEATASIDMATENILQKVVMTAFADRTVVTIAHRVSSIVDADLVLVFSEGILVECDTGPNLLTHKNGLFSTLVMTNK
T1 sequence (O02822 whole entry): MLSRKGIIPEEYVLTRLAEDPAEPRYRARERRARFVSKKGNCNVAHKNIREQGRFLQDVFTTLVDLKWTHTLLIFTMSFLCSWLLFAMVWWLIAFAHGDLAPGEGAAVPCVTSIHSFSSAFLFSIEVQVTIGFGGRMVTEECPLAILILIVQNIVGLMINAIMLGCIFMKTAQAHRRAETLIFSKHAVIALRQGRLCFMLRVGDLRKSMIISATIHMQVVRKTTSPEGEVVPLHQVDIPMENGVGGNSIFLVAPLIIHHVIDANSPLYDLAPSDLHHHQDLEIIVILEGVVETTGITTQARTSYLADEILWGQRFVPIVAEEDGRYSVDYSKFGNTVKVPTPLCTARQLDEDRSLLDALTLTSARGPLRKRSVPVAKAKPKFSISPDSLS

Take `CCCCCC(O)CCCC(=O)O.[Na]` (centres unmarked) [5-HD, 5-hydroxydecanoic acid sodium]: the “attenuation of the oxidative effect of diazoxide” value in test [1] (100 μM 5-HD in the presence of diazoxide, FIG. 3) is reported as “about half”. For the same compound, in test [1] (FIG. 2a), the “block of flavoprotein oxidation induced by diazoxide” value is reported as “reversibly blocks”. Also, the “flavoprotein oxidation, % of the DNP value” in test [1] (diazoxide in the presence of 500 μM 5-HD, FIG. 3) stood at 8±3%. In addition, the “activation of IKATP” value in test [2] is recorded as “did not activate”. Further, the “block of the protection by diazoxide” value in test [3] (100 μM 5-HD) is recorded as “completely blocked”.

Consider `COc1ccc(Cl)cc1C(=O)NCCc1ccc(S(=O)(=O)NC(=O)NC2CCCCC2)cc1` [Glybenclamide], for which, in test [3] (1 μM glybenclamide, data not shown), the “block of the protection from diazoxide” value is “blocked the protection”.

With `CC1=NS(=O)(=O)c2cc(Cl)ccc2N1` [diazoxide], the “mitochondrial oxidation, % of the DNP value” in test [1] (100 μM, first exposure DIAZO(1), FIG. 3) is 48±3%. Besides, in test [1] (100 μM, FIG. 1A), the “oxidation of the flavoproteins (flavoprotein fluorescence)” value is listed as “induced reversible oxidation”. Besides, the half-maximal effective concentration (EC50) in test [1] (Oryctolagus cuniculus, Ventricular myocyte, FIG. 5, 5-6 cells per point, read-out: EC50 to induce mitochondrial oxidation) was 27 µM. Besides, in test [1] (diazoxide exposure in the same cell as pinacidil), the mitochondrial oxidation is 41±5%. Also, the “flavoprotein oxidation, % of the DNP value” in test [1] (second exposure DIAZO(2) after washout, same cells, FIG. 3) was determined as 43±5%. Besides, the “activation of IKATP / membrane currents” value in test [2] (100 μM, FIG. 1B) is on record as “did not activate; also recorded: unchanged”. Besides, the “activation of IKATP” value in test [2] is “did not activate”. Also, the cytotoxicity at 50 µM in test [3] (1 h, 60 min simulated ischemia) is 18 ± 3%; in test [3] (2 h, 120 min simulated ischemia), 23 ± 4%. For the same compound, the “protection of ventricular myocytes compared with preconditioning” value in test [3] (cellular ischemia model) is “to the same extent as preconditioning”. The “flavoprotein fluorescence, confocal images” value in test [4] is recorded as “increased fluorescence in strips parallel to the myofibril orientation”. For the same compound, the “cardioprotective EC25” value in the test on intact hearts is 11 µM.

Take `CC(N/C(=N\C#N)Nc1ccncc1)C(C)(C)C` (centres unmarked) [pinacidil]: the mitochondrial oxidation in test [1] (pinacidil 100 μM, FIG. 6A) came to 35±8%. Also, the “sarcolemmal IKATP” value in test [2] (pinacidil 100 μM, measured at 0 mV, FIG. 6B) is on record as 0.74±0.54 nA.
